Assay results taken from patent publication US10167262B2, “Herbicidal substituted 3-arylpyrazoles” (FMC CORPORATION, priority 2014, dated 2019).

The compounds below were run on barnyardgrass (Echinochloa crus-galli) (assay: Test B flooded paddy test, plant response rating 0-100). Settings: Flood, 250 g ai/ha; scale 0 to 100 (0 no effect, 100 complete control); 13 to 15 days.
Assay type: in vivo
Method in brief: (§1)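 Pots were flooded to 3 cm above the soil surface at treatment, compound applied directly to the paddy water, and that depth held throughout. Plants were kept in a greenhouse for 13 to 15 days, then visually rated against untreated controls.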
With `O=C(c1ccccc1)c1cn(CO)nc1-c1cc(Cl)cc(Cl)c1` [Compound 15, [3-(3,5-dichlorophenyl)-1-(hydroxymethyl)-1H-pyrazol-4-yl]phenylmethanone] the “Plant response rating, Barnyardgrass” value was 0.

The compounds below were run on ducksalad (Heteranthera limosa) in the same assay as above. Settings: Flood, 250 g ai/ha; scale 0 to 100 (0 no effect, 100 complete control); 13 to 15 days.
Assay type: in vivo
Method in brief: as §1
In the case of `O=C(c1ccccc1)c1cn(CO)nc1-c1cc(Cl)cc(Cl)c1` [Compound 15, [3-(3,5-dichlorophenyl)-1-(hydroxymethyl)-1H-pyrazol-4-yl]phenylmethanone], the “Plant response rating, Ducksalad” value is reported as 0.

What follows are compounds tested on rice (Oryza sativa) in the same assay as above. Settings: Flood, 250 g ai/ha; scale 0 to 100 (0 no effect, 100 complete control); 13 to 15 days.
Assay type: in vivo
Method in brief: as §1
In the case of `O=C(c1ccccc1)c1cn(CO)nc1-c1cc(Cl)cc(Cl)c1` [Compound 15, [3-(3,5-dichlorophenyl)-1-(hydroxymethyl)-1H-pyrazol-4-yl]phenylmethanone], the “Plant response rating, Rice” value is reported as 0.

The compounds below were run on sedge, umbrella (small-flower umbrella sedge, Cyperus difformis) in the same assay as above. Settings: Flood, 250 g ai/ha; scale 0 to 100 (0 no effect, 100 complete control); 13 to 15 days.
Assay type: in vivo
Method in brief: as §1
With `O=C(c1ccccc1)c1cn(CO)nc1-c1cc(Cl)cc(Cl)c1` [Compound 15, [3-(3,5-dichlorophenyl)-1-(hydroxymethyl)-1H-pyrazol-4-yl]phenylmethanone] the “Plant response rating, Sedge, Umbrella” value was 0.

The compounds below were run on barnyardgrass (Echinochloa crus-galli) (assay: Test C pre-/postemergence greenhouse test, plant response rating 0-100). Settings: Postemergence, 62 g ai/ha.
Assay type: in vivo
Method in brief: (§2)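 Plants were treated either at seeding (soil of loam and sand) or as 2–18 cm seedlings in a sphagnum peat mix, using test chemicals in a surfactant-containing non-phytotoxic solvent. Visual assessment relative to controls followed 13–15 days later.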
For `O=C(c1ccccc1)c1cn(CO)nc1-c1cc(Cl)cc(Cl)c1` [Compound 15, [3-(3,5-dichlorophenyl)-1-(hydroxymethyl)-1H-pyrazol-4-yl]phenylmethanone], the “Plant response rating (0 to 100), Barnyardgrass” value was 0.

Same assay, conditions: Postemergence, 125 g ai/ha; scale 0 to 100
With `O=C(c1ccccc1)c1cn(CO)nc1-c1cc(Cl)cc(Cl)c1` [Compound 15, [3-(3,5-dichlorophenyl)-1-(hydroxymethyl)-1H-pyrazol-4-yl]phenylmethanone] the “Plant response rating, Barnyardgrass” value was 0.

Same assay, conditions: Postemergence, 250 g ai/ha; scale 0 to 100
For `O=C(c1ccccc1)c1cn(CO)nc1-c1cc(Cl)cc(Cl)c1` [Compound 15, [3-(3,5-dichlorophenyl)-1-(hydroxymethyl)-1H-pyrazol-4-yl]phenylmethanone], the “Plant response rating, Barnyardgrass” value was 0.

Same assay, conditions: Postemergence, 500 g ai/ha; scale 0 to 100
For `O=C(c1ccccc1)c1cn(CO)nc1-c1cc(Cl)cc(Cl)c1` [Compound 15, [3-(3,5-dichlorophenyl)-1-(hydroxymethyl)-1H-pyrazol-4-yl]phenylmethanone], the “Plant response rating, Barnyardgrass” value was 0.

Same assay, conditions: Preemergence, 31 g ai/ha
For `O=C(c1ccccc1)c1cn(CO)nc1-c1cc(Cl)cc(Cl)c1` [Compound 15, [3-(3,5-dichlorophenyl)-1-(hydroxymethyl)-1H-pyrazol-4-yl]phenylmethanone], the “Plant response rating, Barnyardgrass” value was 0.

Same assay, conditions: Preemergence, 62 g ai/ha
For `O=C(c1ccccc1)c1cn(CO)nc1-c1cc(Cl)cc(Cl)c1` [Compound 15, [3-(3,5-dichlorophenyl)-1-(hydroxymethyl)-1H-pyrazol-4-yl]phenylmethanone], the “Plant response rating, Barnyardgrass” value was 0.

Same assay, conditions: Preemergence, 125 g ai/ha
In the case of `O=C(c1ccccc1)c1cn(CO)nc1-c1cc(Cl)cc(Cl)c1` [Compound 15, [3-(3,5-dichlorophenyl)-1-(hydroxymethyl)-1H-pyrazol-4-yl]phenylmethanone], the “Plant response rating, Barnyardgrass” value is reported as 0.

Same assay, conditions: Preemergence, 250 g ai/ha
`O=C(c1ccccc1)c1cn(CO)nc1-c1cc(Cl)cc(Cl)c1` [Compound 15, [3-(3,5-dichlorophenyl)-1-(hydroxymethyl)-1H-pyrazol-4-yl]phenylmethanone] was tested, and the “Plant response rating, Barnyardgrass” value was 0.

The compounds below were run on oilseed rape (Brassica napus) in the same assay as above. Settings: Postemergence, 62 g ai/ha.
Assay type: in vivo
Method in brief: as §2
`O=C(c1ccccc1)c1cn(CO)nc1-c1cc(Cl)cc(Cl)c1` [Compound 15, [3-(3,5-dichlorophenyl)-1-(hydroxymethyl)-1H-pyrazol-4-yl]phenylmethanone] was tested, and the “Plant response rating (0 to 100), Oilseed Rape” value was 60.

Same assay, conditions: Postemergence, 125 g ai/ha
`O=C(c1ccccc1)c1cn(CO)nc1-c1cc(Cl)cc(Cl)c1` [Compound 15, [3-(3,5-dichlorophenyl)-1-(hydroxymethyl)-1H-pyrazol-4-yl]phenylmethanone] was tested, and the “Plant response rating (0 to 100), Oilseed Rape” value was 90.

Same assay, conditions: Postemergence, 250 g ai/ha; scale 0 to 100
`O=C(c1ccccc1)c1cn(CO)nc1-c1cc(Cl)cc(Cl)c1` [Compound 15, [3-(3,5-dichlorophenyl)-1-(hydroxymethyl)-1H-pyrazol-4-yl]phenylmethanone] was tested, and the “Plant response rating, Oilseed Rape” value was 90.

Same assay, conditions: Postemergence, 500 g ai/ha; scale 0 to 100
In the case of `O=C(c1ccccc1)c1cn(CO)nc1-c1cc(Cl)cc(Cl)c1` [Compound 15, [3-(3,5-dichlorophenyl)-1-(hydroxymethyl)-1H-pyrazol-4-yl]phenylmethanone], the “Plant response rating, Oilseed Rape” value is reported as 90.

Same assay, conditions: Preemergence, 31 g ai/ha
With `O=C(c1ccccc1)c1cn(CO)nc1-c1cc(Cl)cc(Cl)c1` [Compound 15, [3-(3,5-dichlorophenyl)-1-(hydroxymethyl)-1H-pyrazol-4-yl]phenylmethanone] the “Plant response rating, Oilseed Rape” value was 0.

Same assay, conditions: Preemergence, 62 g ai/ha
`O=C(c1ccccc1)c1cn(CO)nc1-c1cc(Cl)cc(Cl)c1` [Compound 15, [3-(3,5-dichlorophenyl)-1-(hydroxymethyl)-1H-pyrazol-4-yl]phenylmethanone] was tested, and the “Plant response rating, Oilseed Rape” value was 50.

Same assay, conditions: Preemergence, 125 g ai/ha
`O=C(c1ccccc1)c1cn(CO)nc1-c1cc(Cl)cc(Cl)c1` [Compound 15, [3-(3,5-dichlorophenyl)-1-(hydroxymethyl)-1H-pyrazol-4-yl]phenylmethanone] was tested, and the “Plant response rating, Oilseed Rape” value was 50.

Same assay, conditions: Preemergence, 250 g ai/ha
With `O=C(c1ccccc1)c1cn(CO)nc1-c1cc(Cl)cc(Cl)c1` [Compound 15, [3-(3,5-dichlorophenyl)-1-(hydroxymethyl)-1H-pyrazol-4-yl]phenylmethanone] the “Plant response rating, Oilseed Rape” value was 80.

These compounds were tested on waterhemp (common waterhemp, Amaranthus rudis) in the same assay as above. Settings: Postemergence, 62 g ai/ha.
Assay type: in vivo
Method in brief: as §2
`O=C(c1ccccc1)c1cn(CO)nc1-c1cc(Cl)cc(Cl)c1` [Compound 15, [3-(3,5-dichlorophenyl)-1-(hydroxymethyl)-1H-pyrazol-4-yl]phenylmethanone] was tested, and the “Plant response rating (0 to 100), Waterhemp” value was 65.

Same assay, conditions: Postemergence, 125 g ai/ha
With `O=C(c1ccccc1)c1cn(CO)nc1-c1cc(Cl)cc(Cl)c1` [Compound 15, [3-(3,5-dichlorophenyl)-1-(hydroxymethyl)-1H-pyrazol-4-yl]phenylmethanone] the “Plant response rating (0 to 100), Waterhemp” value was 95.

Same assay, conditions: Postemergence, 250 g ai/ha; scale 0 to 100
With `O=C(c1ccccc1)c1cn(CO)nc1-c1cc(Cl)cc(Cl)c1` [Compound 15, [3-(3,5-dichlorophenyl)-1-(hydroxymethyl)-1H-pyrazol-4-yl]phenylmethanone] the “Plant response rating, Waterhemp” value was 100.

Same assay, conditions: Postemergence, 500 g ai/ha; scale 0 to 100
`O=C(c1ccccc1)c1cn(CO)nc1-c1cc(Cl)cc(Cl)c1` [Compound 15, [3-(3,5-dichlorophenyl)-1-(hydroxymethyl)-1H-pyrazol-4-yl]phenylmethanone] was tested, and the “Plant response rating, Waterhemp” value was 100.

Same assay, conditions: Preemergence, 62 g ai/ha
With `O=C(c1ccccc1)c1cn(CO)nc1-c1cc(Cl)cc(Cl)c1` [Compound 15, [3-(3,5-dichlorophenyl)-1-(hydroxymethyl)-1H-pyrazol-4-yl]phenylmethanone] the “Plant response rating, Waterhemp” value was 100.

Same assay, conditions: Preemergence, 125 g ai/ha
In the case of `O=C(c1ccccc1)c1cn(CO)nc1-c1cc(Cl)cc(Cl)c1` [Compound 15, [3-(3,5-dichlorophenyl)-1-(hydroxymethyl)-1H-pyrazol-4-yl]phenylmethanone], the “Plant response rating, Waterhemp” value is reported as 100.

Same assay, conditions: Preemergence, 250 g ai/ha
With `O=C(c1ccccc1)c1cn(CO)nc1-c1cc(Cl)cc(Cl)c1` [Compound 15, [3-(3,5-dichlorophenyl)-1-(hydroxymethyl)-1H-pyrazol-4-yl]phenylmethanone] the “Plant response rating, Waterhemp” value was 100.

Each compound was assayed on waterhemp_RES2, (ALS & HPPD resistant common waterhemp, Amaranthus rudis) (assay: Test E postemergence greenhouse test, plant response rating 0-100). Settings: 31 g ai/ha, scale 0 to 100.
Assay type: in vivo
Method in brief: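 Resistant waterhemp biotypes grown in peat/vermiculite medium and treated postemergence at 2–18 cm height (1- to 4-leaf stage). Kept in greenhouse 14 to 21 days, then visually rated against untreated controls on a 0–100 scale (0 no effect, 100 complete control).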
With `O=C(c1ccccc1)c1cn(CO)nc1-c1cc(Cl)cc(Cl)c1` [Compound 15, [3-(3,5-dichlorophenyl)-1-(hydroxymethyl)-1H-pyrazol-4-yl]phenylmethanone] the “Plant response rating, Waterhemp_RES2” value was 60.

Same assay, conditions: 62 g ai/ha, scale 0 to 100
In the case of `O=C(c1ccccc1)c1cn(CO)nc1-c1cc(Cl)cc(Cl)c1` [Compound 15, [3-(3,5-dichlorophenyl)-1-(hydroxymethyl)-1H-pyrazol-4-yl]phenylmethanone], the “Plant response rating, Waterhemp_RES2” value is reported as 70.

Same assay, conditions: 125 g ai/ha, scale 0 to 100
`O=C(c1ccccc1)c1cn(CO)nc1-c1cc(Cl)cc(Cl)c1` [Compound 15, [3-(3,5-dichlorophenyl)-1-(hydroxymethyl)-1H-pyrazol-4-yl]phenylmethanone] was tested, and the “Plant response rating, Waterhemp_RES2” value was 75.

Same assay, conditions: 250 g ai/ha, scale 0 to 100
With `O=C(c1ccccc1)c1cn(CO)nc1-c1cc(Cl)cc(Cl)c1` [Compound 15, [3-(3,5-dichlorophenyl)-1-(hydroxymethyl)-1H-pyrazol-4-yl]phenylmethanone] the “Plant response rating, Waterhemp_RES2” value was 90.

Same assay, conditions: 500 g ai/ha, scale 0 to 100
With `O=C(c1ccccc1)c1cn(CO)nc1-c1cc(Cl)cc(Cl)c1` [Compound 15, [3-(3,5-dichlorophenyl)-1-(hydroxymethyl)-1H-pyrazol-4-yl]phenylmethanone] the “Plant response rating, Waterhemp_RES2” value was 98.
